Measurements: US20210253575A1, “PYRROLIDINE AMINE COMPOUNDS FOR THE TREATMENT OF AUTOIMMUNE DISEASE” (Hoffmann-La Roche Inc., priority 2018, published 2021)

biological target: T1, human TLR8 (Homo sapiens, UniProt Q9NR97); assay: HEK293-Blue-hTLR-8 cells assay (SEAP reporter, R848 stimulation); type: cell-based; details: HEK293-Blue-hTLR8 cells, R848 ligand, 20 hrs incubation
T1 sequence (Q9NR97 27-1041): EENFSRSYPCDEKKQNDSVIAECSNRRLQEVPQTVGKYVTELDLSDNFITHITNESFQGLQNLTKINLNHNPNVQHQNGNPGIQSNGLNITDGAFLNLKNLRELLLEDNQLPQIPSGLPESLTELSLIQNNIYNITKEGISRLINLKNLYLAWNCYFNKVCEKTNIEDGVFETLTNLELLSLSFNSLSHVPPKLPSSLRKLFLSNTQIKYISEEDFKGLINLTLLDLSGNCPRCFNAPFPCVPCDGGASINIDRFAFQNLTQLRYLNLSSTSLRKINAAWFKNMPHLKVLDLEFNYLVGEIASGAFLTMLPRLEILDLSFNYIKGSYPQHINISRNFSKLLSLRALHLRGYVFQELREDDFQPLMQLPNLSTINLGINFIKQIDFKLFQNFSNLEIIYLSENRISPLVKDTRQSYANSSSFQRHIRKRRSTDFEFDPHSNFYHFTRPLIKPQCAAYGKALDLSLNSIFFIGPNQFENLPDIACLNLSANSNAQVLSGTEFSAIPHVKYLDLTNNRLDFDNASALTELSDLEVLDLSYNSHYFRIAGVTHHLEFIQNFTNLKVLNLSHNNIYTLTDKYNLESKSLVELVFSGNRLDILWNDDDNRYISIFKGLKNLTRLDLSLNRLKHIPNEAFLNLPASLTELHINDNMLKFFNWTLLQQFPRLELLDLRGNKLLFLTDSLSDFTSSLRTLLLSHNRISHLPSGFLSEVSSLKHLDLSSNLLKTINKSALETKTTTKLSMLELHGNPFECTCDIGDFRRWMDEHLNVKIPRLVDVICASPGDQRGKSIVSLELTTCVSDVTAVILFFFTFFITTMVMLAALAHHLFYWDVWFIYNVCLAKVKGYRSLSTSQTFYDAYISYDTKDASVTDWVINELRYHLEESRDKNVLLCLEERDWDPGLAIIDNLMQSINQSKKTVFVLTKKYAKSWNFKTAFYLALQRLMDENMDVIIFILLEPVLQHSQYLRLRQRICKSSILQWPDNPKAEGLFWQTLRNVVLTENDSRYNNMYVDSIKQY
Outline: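 Antagonism was measured in HEK293-Blue-hTLR8 cells with an NF-κB/AP-1-driven SEAP reporter. Cells were stimulated with R848 (10 μL of 60 uM stock) alongside compound (1% DMSO) for 20 hrs at 37° C. Supernatant SEAP was read with QUANTI-Blue after 2 hrs, absorbance at 620-655 nm.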

Structure (SMILES)	IC50
CN1CCC2(CCN(C[C@H]3CN(c4ccc(C#N)c5nccnc45)C[C@@H]3C(F)(F)F)C2)C1 (stereo partly drawn) [Example 84, 8-[(3S,4R)-3-[(7-methyl-2,7-diazaspiro[4.4]nonan-2-yl)methyl]-4-(trifluoromethyl)pyrrolidin-1-yl]quinoxaline-5-carbonitrile]	57 nM
CC1(CN)CCN(C[C@H]2CN(c3ccc(C#N)c4nccnc34)C[C@@H]2C(F)(F)F)C1 (stereo partly drawn) [Example 85, 8-[(3S,4R)-3-[[3-(aminomethyl)-3-methyl-pyrrolidin-1-yl]methyl]-4-(trifluoromethyl)pyrrolidin-1-yl]quinoxaline-5-carbonitrile]	75 nM
CN(C)[C@@H]1CCN(C[C@H]2CN(c3ccc(C#N)c4nccnc34)C[C@@H]2C(F)(F)F)C1 [Example 83, 8-[(3S,4R)-3-[[(3R)-3-(dimethylamino)pyrrolidin-1-yl]methyl]-4-(trifluoromethyl)pyrrolidin-1-yl]quinoxaline-5-carbonitrile]	65 nM
N#Cc1ccc(N2CC(CN3CC4CCC(C3)C4N)C3(CC3)C2)c2nccnc12 (centres unmarked) [Example 4, 8-[7-[(8-Amino-3-azabicyclo[3.2.1]octan-3-yl)methyl]-5-azaspiro[2.4]heptan-5-yl]quinoxaline-5-carbonitrile]	38 nM
N#Cc1ccc(N2CC(CN3CCNCC3)C3(CC3)C2)c2nccnc12 (centres unmarked) [Example 3, 8-[7-(piperazin-1-ylmethyl)-5-azaspiro[2.4]heptan-5-yl]quinoxaline-5-carbonitrile]	12 nM
